Columns and labels:
[1] = test system: RAW 264.7 cells; assay: Intracellular hydroxyl radical generation in RAW 264.7 cells; assay type: cell-based; conditions: RAW 264.7 cells with IONPs 3 mg/mL + VC 500 μM, BIP 500 μM, 24 h, FIG. 3B
Description: (§1) A. The intracellular level of ferrous iron (Fe2+) in RAW 264.7 cells treated with IONPs (3 mg/mL) alone, IONPs with VC (500 μM), or IONPs with VC and BIP (iron chelator, 500 μM). B. The intracellular level of hydroxyl radical concentration in RAW 264.7 cells treated with IONPs (3 mg/mL) alone, IONPs with VC (500 μM), or in combination with BIP (500 μM) for 24 h. C. The bactericidal activity of RAW 264.7 cells treated with IONPs (3 mg/mL) with VC (500 μM), IONPs with VC and BIP (500 μM), or IONPs with VC and TIH (200 mM), assessed by antibiotic protection assay. *p<0.05, N=3-5 per group.
To further determine if the VC-mediated ROS generation and bactericidal activity were associated with a Fenton reaction due to increased release of Fe^2+, the levels of Fe^2+ were compared between RAW 264.7 cells treated with IONPs alone and IONPs with VC. […] Among various forms of ROS, hydroxyl radical ([…]) is highly cytotoxic by causing oxidative damage to DNA and cell membrane. In the Fenton reaction-mediated generation of ROS, the oxidation of Fe^2+ by hydrogen peroxide (H2O2) produces highly reactive hydroxyl radical.

[2] = test system: intracellular S. aureus; assay: Bactericidal activity of RAW 264.7 macrophages against intracellular S. aureus (antibiotic protection assay, viable colony number); assay type: cell-based, Staphylococcus aureus; conditions: cells with IONPs 3 mg/mL + VC 500 μM plus chelator BIP 500 μM or scavenger THI 200 mM, FIG. 3C
Description: A. The quantification of ROS generation in the RAW 264.7 cells treated with varying concentration of IONPs (0-3 mg/mL). B. The colony number of viable bacteria (S. aureus) in the lysed RAW 264.7 macrophages treated with varying concentration of IONPs (0-3 mg/mL) following the exposure of live S. aureus.
(A-B) The quantification of ROS generation (A) and viable colony number of S. aureus (B) in the RAW 264.7 cells treated with VC (500 μM) alone, IONP (3 mg/mL) alone, or IONP (3 mg/mL)+VC (500 μM). (C-D) The quantification of ROS generation (C) and viable colony number of S. aureus (D) in the RAW 264.7 cells treated with IONP (3 mg/mL) alone, or IONP (3 mg/mL)+H2O2 (100 μM). E. Representative images of surviving S. aureus colony on agar plates from lysed RAW264.7 macrophages treated with H2O2 (100 μM), IONP (3 mg/mL), or IONP+H2O2. N=3-5 per group, *p<0.05
as §1, with “B. The intracellular level of hydroxyl radical concentration in RAW 264.7 cells treated with IONPs (3 mg/mL) alone, IONPs with VC (500 μM), or in combination with BIP (500 μM) for 24 h. C.” left out, “group. […]” for “group.”

With `c1ccc(-c2ccccn2)nc1` [BIP] the “IONPs and VC-induced generation of hydroxyl radicals” value [1] was “significantly decreased” and the “IONPs/VC-induced bactericidal activity of RAW 264.7 cells” value [2] was “decrease in bactericidal activity”.
